Read-outs that look alike come from different tables or passages of the source.
Key:
[1] = test system: leukemia MOLM-13 cell line; assay: 4-day cell viability assay, CellTiter-Glo; format: cell-based; details: read-out: Cell Growth Inhibition (IC50 (nM)) MOLM-13 Cell Line (CellTiter-Glo assay)
Experimental: (§1) The effect of representative BET bromodomain inhibitors on cell viability was determined in a 4-day proliferation assay. Cells were maintained in the appropriate culture medium with 10% FBS at 37° C. and an atmosphere of 5% CO2. All the cell lines were used within three months of thawing fresh vials.
(§2) Cells were seeded in 96-well flat bottom (Corning COSTAR, Corning, N.Y., cat#3595) or white opaque cell culture plates (BD Falcon, cat#353296) at a density of 3,000-10,000 cells/well in 75 μl of culture medium. Compounds were serially diluted in the appropriate medium, and 75 μl of the diluted compounds were added to the appropriate wells of the cell plate. After the addition of compounds, the cells were incubated at 37° C. in an atmosphere of 5% CO2 for 4 days. Cell viability was determined using the CellTiter-Glo® Luminescent Cell Viability Assay Kit (Promega, Madison, Wis.) for MOLM-13 cells and WST (2-(2-methoxy-4-nitrophenyl)-3-(4-nitrophenyl)-5-(2,4-disulfophenyl)-2H-tetrazolium, monosodium salt) Cell Counting-8 Kit (Dojindo Molecular Technologies, Inc., Rockville, Md.) for MDA-MB-436 cells according to the manufacturers' instructions.
For the CellTiter-Glo assay, 100 μl of CellTiter-Glo® Reagent was added to each well, and then the plates were incubated at room temperature for 10-20 minutes. The luminescent signal was measured using a Tecan Infinite M1000 multimode microplate reader (Tecan, Morrisville, N.C.). The readings were normalized to the DMSO-treated cells and the IC50 was calculated by nonlinear regression (four parameters sigmoid fitted with variable slope, least squares fit, and no constraint) analysis using the GraphPad Prism 5 software.

[2] = test system: breast cancer MDA-MB-436 cell line; assay: 4-day cell viability assay, WST; format: cell-based; details: read-out: Cell Growth Inhibition (IC50 (nM)) MDA-436 Cell Line (WST assay)
Experimental: as §1, §2
For the WST assay, WST-8 reagent was added to each well at a final concentration of 10% (v/v), and then the plates were incubated at 37° C. for 1-2 hours for color development. The absorbance was measured at 450 nm using a SPECTRAmax PLUS plate reader (Molecular Devices, Sunnyvale, Calif.). The readings were normalized to the DMSO-treated cells and the half maximal inhibitory concentration (IC50) was calculated by nonlinear regression (four parameters sigmoid fitted with variable slope, least squares fit, and no constraint) analysis using the GraphPad Prism 5 software (GraphPad Software, La Jolla, Calif.).

[3] = target: BRD2 BD1 (Homo sapiens (Human), UniProt P25440); assay: FP competitive binding assay using Cpd. No. 350 as the probe
Sequence of BRD2 BD1 (P25440 74-180): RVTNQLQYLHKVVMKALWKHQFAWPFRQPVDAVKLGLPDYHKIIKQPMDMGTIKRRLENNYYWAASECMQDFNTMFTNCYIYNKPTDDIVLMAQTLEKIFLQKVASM
Experimental: (§3) Fluorescence Polarization (FP) competitive binding studies (see above) were carried out using the FAM labeled fluorescent probe Cpd. No. 350 to determine binding affinities of representative compounds to both BD1 and BD2 of BRD2, BRD3, and BRD4 proteins. Equilibrium dissociation constants (Id) values of Cpd. No. 350 to these six proteins were determined from protein saturation experiments by monitoring the total fluorescence polarization of mixtures composed with the fluorescent probe at a fixed concentration and proteins with increasing concentrations up to full saturation. Serial dilutions of testing protein were mixed with Cpd. No. 350 to a final volume of 200 μl in the assay buffer. […] Plates were incubated at room temperature for 30 minutes with gentle shaking to assure equilibrium. […] Kd values of Cpd.
(§4) The IC50 and Ki values of compounds were determined in a competitive binding experiment as described above. […] FP values were measured as described above. IC50 values were determined by nonlinear regression fitting of the competition curves.

[4] = target: BRD2 BD2 (Homo sapiens (Human), UniProt P25440); assay: as above
Sequence of BRD2 BD2 (P25440 344-453): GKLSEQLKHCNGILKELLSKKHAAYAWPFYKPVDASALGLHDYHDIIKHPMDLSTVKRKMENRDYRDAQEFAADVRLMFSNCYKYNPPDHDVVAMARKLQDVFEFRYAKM
Experimental: as §3, §4

[5] = target: BRD3 BD1 (Homo sapiens (Human), UniProt Q15059); assay: as above
Sequence of BRD3 BD1 (Q15059 34-140): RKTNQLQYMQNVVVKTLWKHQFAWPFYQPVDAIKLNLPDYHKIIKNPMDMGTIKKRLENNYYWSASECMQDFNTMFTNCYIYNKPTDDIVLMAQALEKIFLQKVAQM
Experimental: as §3, §4

[6] = target: BRD3 BD2 (Homo sapiens (Human), UniProt Q15059); assay: as above
Sequence of BRD3 BD2 (Q15059 306-415): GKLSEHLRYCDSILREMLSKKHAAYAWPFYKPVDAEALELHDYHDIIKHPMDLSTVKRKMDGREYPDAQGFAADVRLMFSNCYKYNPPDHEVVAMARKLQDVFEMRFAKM
Experimental: as §3, §4

[7] = target: BRD4 BD1 (Homo sapiens (Human), UniProt O60885); assay: as above
Experimental: as §3, §4

[8] = target: BRD4 BD2 (Homo sapiens (Human), UniProt O60885); assay: as above
Experimental: as §3, §4

[9] = Homo sapiens, MOLM-13, 96 h, 4 days
[10] = Homo sapiens, MDA-MB-436, 96 h, 4 days
[11] = read-out: BRD2 BD1 Ki, FP, Cpd. No. 350 probe […]
[12] = read-out: BRD2 BD2 Ki, FP, Cpd. No. 350 probe […]
[13] = read-out: BRD3 BD1 Ki, FP, Cpd. No. 350 probe […]
[14] = read-out: BRD3 BD2 Ki, FP, Cpd. No. 350 probe […]
[15] = read-out: BRD4 BD1 Ki, FP, Cpd. No. 350 probe […]
[16] = read-out: BRD4 BD2 Ki, FP, Cpd. No. 350 probe […]

Structure (SMILES)	IC50 [1, 9]	IC50 [2, 10]	Ki [3, 11]	Ki [4, 12]	Ki [5, 13]	Ki [6, 14]	Ki [7, 15]	Ki [8, 16]	also measured
COc1cc2c(cc1-c1c(C)noc1C)[nH]c1nc(C)nc(-c3ccc(C(=O)NC4CCN(C5COC5)CC4)c4ccccc34)c12 [Cpd. No. 197, 4-(7-(3,5-Dimethylisoxazol-4-yl)-6-methoxy-2-methyl-9H-pyrimido[4,5-b]indol-4-yl)-N-(1-(oxetan-3-yl)piperidin-4-yl)-1-naphthamide]	17.3 nM	101 nM	6.2 nM	3.6 nM	10.5 nM	1.3 nM	17.1 nM	8.9 nM	–
COc1cc2c(cc1-c1c(C)nn(C)c1C)[nH]c1ccnc(Cl)c12 [RX-27]	–	–	5450 ± 1920 nM	2840 ± 574 nM	5030 ± 1010 nM	2050 ± 142 nM	4842 ± 29 nM	1950 ± 175 nM	–
COc1cc2c(cc1-c1c(C)noc1C)[nH]c1nc(C)nc(-c3cc(C(=O)NC4CCN(C)CC4)cc(C(C)(C)C)c3)c12 [Cpd. No. 319]	–	–	–	–	–	–	–	–	IC50 ([1]; Homo sapiens, MOLM-13, 96 h): 10 nM; IC50 ([2]; Homo sapiens, MDA-MB-436, 96 h): 67.4 nM
COc1cc2c(cc1-c1c(C)noc1C)[nH]c1nc(C)nc(-c3cc(C(=O)NC4CCN(C5CCOCC5)CC4)[nH]c3C(C)C)c12 [Cpd. No. 212, 4-(7-(3,5-Dimethylisoxazol-4-yl)-6-methoxy-2-methyl-9H-pyrimido[4,5-b]indol-4-yl)-5-isopropyl-N-(1-(tetrahydro-2H-pyran-4-yl)piperidin-4-yl)-1H-pyrrole-2-carboxamide]	22 nM	100 nM	5.7 nM	4.6 nM	10.2 nM	1 nM	17 nM	4.5 nM	–
COc1cc2c(cc1-c1c(C)noc1C)[nH]c1nc(C)nc(-c3cc(C(=O)NC4CCN(C5COC5)CC4)[nH]c3C(C)C)c12 [Cpd. No. 213, 4-(7-(3,5-Dimethylisoxazol-4-yl)-6-methoxy-2-methyl-9H-pyrimido[4,5-b]indol-4-yl)-5-isopropyl-N-(1-(oxetan-3-yl)piperidin-4-yl)-1H-pyrrole-2-carboxamide]	48 nM	225 nM	10.5 nM	7.1 nM	14 nM	2.2 nM	20.8 nM	6.5 nM	–
COc1cc2c(cc1-c1c(C)noc1C)[nH]c1nc(C)nc(-c3cc(C(=O)NC4CCN(C)CC4)[nH]c3C(C)C)c12 [Cpd. No. 211, 4-(7-(3,5-Dimethylisoxazol-4-yl)-6-methoxy-2-methyl-9H-pyrimido[4,5-b]indol-4-yl)-5-isopropyl-N-(1-methylpiperidin-4-yl)-1H-pyrrole-2-carboxamide]	10.4 nM	140 nM	5.7 nM	4.9 nM	10.8 nM	1.2 nM	17.2 nM	5.2 nM	–
COc1cc2c(cc1-c1c(C)noc1C)[nH]c1nc(C)nc(-c3ccc(C(=O)NC4CCN(C)CC4)c4ccccc34)c12 [Cpd. No. 196, 4-(7-(3,5-Dimethylisoxazol-4-yl)-6-methoxy-2-methyl-9H-pyrimido[4,5-b]indol-4-yl)-N-(1-methylpiperidin-4-yl)-1-naphthamide]	6.8 nM	53 nM	4.3 nM	3.5 nM	9.7 nM	1.4 nM	12.3 nM	7 nM	–
CCc1noc(C)c1-c1cc2[nH]c3ccnc(Cl)c3c2cc1OC [RX-39]	–	–	1720 ± 892 nM	638 ± 70 nM	668 ± 82 nM	406 ± 192 nM	1240 ± 549 nM	478 ± 69 nM	–
COc1cc2c(cc1-c1c(C)nn(C)c1C)[nH]c1ccnc(-c3c(C)nn(C)c3C)c12 [Cpd. No. 33, 8-methoxy-1,7-bis(1,3,5-trimethyl-1H-pyrazol-4-yl)-5H-pyrido[4,3-b]indole]	–	–	–	–	–	–	–	–	Ki [3]: 1670 ± 448 nM; Ki [4]: 909 ± 272 nM; Ki [5]: 1220 ± 100 nM; Ki [6]: 348 ± 12 nM; Ki [7]: 1726 ± 17 nM; Ki [8]: 867 ± 107 nM
COc1cc2c(cc1-c1c(C)noc1C)[nH]c1nc(C)nc(-c3ccc(NC(=O)N4CCN(C)CC4)c4ccccc34)c12 [Cpd. No. 316]	–	–	–	–	–	–	–	–	IC50 ([1]; Homo sapiens, MOLM-13, 96 h): 7.4 nM; IC50 ([2]; Homo sapiens, MDA-MB-436, 96 h): 45.2 nM
COc1cc2c(cc1-c1c(C)noc1C)[nH]c1ccnc(-c3c(C)nn(-c4ccccc4)c3C)c12 [Cpd. No. 352, 4-(1-(3,5-dimethyl-1-phenyl-1H-pyrazol-4-yl)-8-methoxy-5H-pyrido[4,3-b]indol-7-yl)-3,5-dimethylisoxazole]	–	–	62.6 ± 9 nM	52.9 ± 2.7 nM	31.8 ± 1.5 nM	35 ± 2 nM	103 ± 3 nM	98.1 ± 6.1 nM	IC50 ([1]; 4 days): 751 nM; IC50 ([2]; 4 days): 724 nM
COc1cc2c(cc1-c1c(C)noc1C)[nH]c1nc(C)nc(-c3cccc(C(C)(C)O)c3)c12 [Cpd. No. 183, 2-(3-(7-(3,5-Dimethylisoxazol-4-yl)-6-methoxy-2-methyl-9H-pyrimido[4,5-b]indol-4-yl)phenyl)propan-2-ol]	20 nM	93 nM	5.2 nM	8.8 nM	6.1 nM	4.7 nM	7.9 nM	11.7 nM	–
COc1cc2c(cc1-c1c(C)noc1C)[nH]c1nc(C)nc(-c3cc(C(=O)NC4CCN(C5COC5)CC4)cc(C(C)(C)C)c3)c12 [Cpd. No. 322]	–	–	–	–	–	–	–	–	IC50 ([1]; Homo sapiens, MOLM-13, 96 h): 19.4 nM; IC50 ([2]; Homo sapiens, MDA-MB-436, 96 h): 63.9 nM
COc1cc2c(cc1-c1c(C)noc1C)[nH]c1ccnc(-c3c(-c4ccccc4)n[nH]c3C)c12 [Cpd. No. 26, 4-(8-methoxy-1-(5-methyl-3-phenyl-1H-pyrazol-4-yl)-5H-pyrido[4,3-b]indol-7-yl)-3,5-dimethylisoxazole]	431 nM	696 nM	–	–	–	–	–	–	–
COc1cc2c(cc1-c1c(C)noc1C)[nH]c1ccnc(Cl)c12 [RX-3, 4-(1-chloro-8-methoxy-5H-pyrido[4,3-b]indol-7-yl)-3,5-dimethylisoxazole]	–	–	215 ± 34 nM	109 ± 10 nM	144 ± 17 nM	63.8 ± 6 nM	305 ± 26 nM	194 ± 24 nM	–
COc1cc2c(cc1-c1c(C)noc1C)[nH]c1nc(C)nc(-c3ccc(NC(=O)N4CCN(C5COC5)CC4)c4ccccc34)c12 [Cpd. No. 317]	–	–	–	–	–	–	–	–	IC50 ([1]; Homo sapiens, MOLM-13, 96 h): 31.6 nM; IC50 ([2]; Homo sapiens, MDA-MB-436, 96 h): 169 nM
CCc1onc(C)c1-c1cc2[nH]c3ccnc(Cl)c3c2cc1OC [RX-38]	–	–	760 ± 240 nM	1880 ± 432 nM	703 ± 432 nM	1280 ± 1070 nM	2810 ± 782 nM	2180 ± 132 nM	–
COc1cc2c(cc1-c1c(C)noc1C)[nH]c1nc(C)nc(-c3ccc(C(=O)N4CCN(C)CC4)c4ccccc34)c12 [Cpd. No. 207, (4-(7-(3,5-Dimethylisoxazol-4-yl)-6-methoxy-2-methyl-9H-pyrimido[4,5-b]indol-4-yl)naphthalen-1-yl)(4-methylpiperazin-1-yl)methanone]	5.3 nM	58.1 nM	5.3 nM	5.1 nM	10 nM	1.3 nM	14.7 nM	4.1 nM	–
CCc1noc(CC)c1-c1cc2[nH]c3ccnc(Cl)c3c2cc1OC [RX-45]	–	–	–	–	–	3440 ± 1980 nM	> 10000 nM	8320 ± 3220 nM	–

From patent US9675697B2 (THE REGENTS OF THE UNIVERSITY OF MICHIGAN, priority 2013, dated 2017)
